Source: ChEMBL document CHEMBL5528041, “Ferroptosis-Based Therapeutic Strategies toward Precision Medicine for Cancer” (J Med Chem, 2024)
Values after ≈ are worked out from the molar mass of the structure shown. Blank lines part the entries; values can stand above or below the molecule they belong to.

Assays:
ASPC1 = assay: Cytotoxicity against human ASPC1 cells assessed as inhibition of cell growth by SRB assay; assay type: functional, cell-based
BXPC-3 = assay: Antiproliferative activity against human BXPC-3 cells assessed as inhibition of cell proliferation treated for 72 hrs by resazurin dye-based fluorescence assay; assay type: functional; conditions: BXPC-3, 72 h
Panc1005 = assay: Antiproliferative activity against human Panc1005 cells assessed as reduction in cell growth incubated for 72 hrs by Cell titer-Glo luminescent cell viability assay; assay type: functional, cell-based; conditions: Panc1005, 72 h
PANC-1 = assay: Antiproliferative activity against human PANC-1 cells assessed as reduction in cell viability incubated for 48 hrs by resazurin dye based cell titer-blue viability assay; assay type: functional; conditions: PANC-1, 48 h
[1] = Antiproliferative activity against human CRC cells assessed as reduction in cell viability incubated for 48 hrs by MTT assay; assay type: functional, cell-based
HT-29 [2] = assay: Antiproliferative activity against human HT-29 cells assessed as inhibition of cell growth measured after 48 hrs by SRB assay; assay type: functional, cell-based; conditions: HT-29, 48 h
HCT-116 [3] = assay: Antiproliferative activity against human HCT-116 cells assessed as reduction in cell growth incubated for 48 hrs by MTT assay; assay type: functional, cell-based; conditions: HCT-116, 48 h
MDA-MB-231 = assay: Antiproliferative activity against human MDA-MB-231 cells assessed as inhibition of cell viability measured after 72 hrs by MTT assay; assay type: functional, cell-based; conditions: MDA-MB-231, 72 h
Huh-7 = assay: Cytotoxicity against human Huh-7 cells assessed as reduction in cell viability incubated for 72 hrs by MTT assay; assay type: functional, cell-based; conditions: Huh-7, 72 h
[4] = Antiproliferative activity against human HCCM-5 cells assessed as reduction in cell viability measured after 72 hrs by MTT assay; assay type: functional, cell-based; conditions: HCCM-5, 72 h
HCT-116 [5] = assay: Antiproliferative activity against human HCT-116 cells assessed as reduction in cell viability incubated for 48 hrs by WST-1 assay; assay type: functional, cell-based; conditions: HCT-116, 48 h
HT-29 [6] = assay: Antiproliferative activity against human HT-29 cells assessed as reduction in cell viability measured after 48 hrs by WST-1 assay; assay type: functional, cell-based; conditions: HT-29, 48 h
B16 = assay: Cytotoxicity against mouse B16 cells assessed as inhibition of cell viability measured after 24 hrs by MTT assay; assay type: functional, cell-based; conditions: B16, 24 h
MC-38 = assay: Cytotoxicity against mouse MC-38 cells assessed as reduction in cell viability incubated for 24 hrs by MTS assay; assay type: functional, cell-based; conditions: MC-38, 24 h
Hepa 1-6 = assay: Cytotoxicity against mouse Hepa1-6 cells assessed as inhibition of cell growth incubated for 24 hrs by MTT assay; assay type: functional, cell-based; conditions: Hepa1-6, 24 h
ID8 = assay: Cytotoxicity against mouse ID8 cells assessed as inhibition of cell viability measured after 24 hrs by MTT assay; assay type: functional, cell-based; conditions: ID8, 24 h
[7] = Cytotoxicity against mouse Hepa-1 cells assessed as reduction in cell viability incubated for 24 hrs by MTS assay; assay type: functional, cell-based; conditions: Hepa-1, 24 h

- IC50 (BXPC-3): 590 nM
- IC50 (Panc1005): 590 nM
- IC50 (PANC-1): 590 nM
SMILES: Oc1c([C@@H](Nc2ccccn2)c2cccc(Cl)c2Cl)ccc2cccnc12
- IC50 (ASPC1): 590 nM

- IC50 (MDA-MB-231): 10600 nM
SMILES: N#Cc1ccc(C(=O)/C=C/c2ccccc2Oc2ccccc2C=O)cc1

- IC50 (HCT-116 [5]): 19 µg/mL (≈ 54.2 µM)
- IC50 (HT-29 [6]): 10 µg/mL (≈ 28.5 µM)
SMILES: C=C1CC[C@@H]2[C@](C)(CO)[C@H](O)CC[C@@]2(C)[C@@H]1C/C=C1/C(=O)OC[C@H]1O [ANDROGRAPHOLIDE]

Further lines, the molecule ahead of its results:

SMILES: CC(C)=CC/C=C(\C)[C@H]1CC[C@]2(C)[C@@H]1[C@H](O)C[C@@H]1[C@@]3(C)CC[C@H](O)C(C)(C)[C@@H]3[C@@H](O[C@@H]3O[C@H](CO)[C@@H](O)[C@H](O)[C@H]3O)C[C@]12C [GINSENOSIDE RH4]
- IC50 [1]: 197000 nM
- IC50 (HT-29 [2]): 197000 nM
- IC50 (HCT-116 [3]): 178000 nM

SMILES: C/C=C/C#CC#C/C=C/c1ccco1
- IC50 (Huh-7): 22400 nM
- IC50 [4]: 59700 nM

SMILES: CCOc1ccccc1-n1c(C(C)N2CCN(C(=O)COc3ccc(Cl)cc3)CC2)nc2ccccc2c1=O (configuration not stated) [ERASTIN]
- IC50 (B16): 5000 nM
- IC50 (MC-38): 500 nM
- IC50 (Hepa 1-6): 500 nM
- IC50 (ID8): 1200 nM
- IC50 [7]: 500 nM
